ChEMBL document CHEMBL1157831, “Chemical epigenetics alters the secondary metabolite composition of guttate excreted by an atlantic-forest-soil-derived Penicillium citreonigrum” (2010)

Experiments:
[1] = tested on: Candida albicans; experiment: Antifungal activity against Candida albicans ATCC 12983 at 15 ug in 6 mm disk after 10 hrs by disc-diffusion assay; type: functional; settings: ATCC 12983, 10 h, read-out: IZ
[2] = tested on: Candida parapsilosis; experiment: Antifungal activity against Candida parapsilosis ATCC 12969 at 15 ug in 6 mm disk after 10 hrs by disc-diffusion assay; type: functional; settings: Lodderomyces parapsilosis, ATCC 12969, 10 h; read-out: IZ
[3] = tested on: Nakaseomyces glabratus; experiment: Antifungal activity against Candida glabrata NRRL Y-65 at 15 ug in 6 mm disk after 10 hrs by disc-diffusion assay; type: functional; settings: NRRL Y-65, 10 h, read-out: IZ
[4] = tested on: Candida tropicalis; experiment: Antifungal activity against Candida tropicalis ATCC 12968 at 15 ug in 6 mm disk after 10 hrs by disc-diffusion assay; type: functional; settings: ATCC 12968, 10 h, read-out: IZ
[5] = tested on: Pichia kudriavzevii; experiment: Antifungal activity against Candida krusei ATCC 27803 at 15 ug in 6 mm after 10 hrs by disc-diffusion assay; type: functional; settings: ATCC 27803, 10 h, read-out: IZ
[6] = tested on: Streptococcus pyogenes; experiment: Antimicrobial activity against Streptococcus pyogenes at 100 ug/disk after 10 hrs by disc-diffusion assay; type: functional; settings: read-out: IZ
[7] = tested on: Staphylococcus aureus; experiment: Antimicrobial activity against Staphylococcus aureus ATCC 700787 at 100 ug/disk after 10 hrs by disc-diffusion assay; type: functional; settings: ATCC 700787, 10 h, read-out: IZ
[8] = tested on: Salmonella enterica; experiment: Antimicrobial activity against Salmonella typhimurium at 100 ug/disk after 10 hrs by disc-diffusion assay; type: functional, Salmonella enterica subsp. enterica serovar Typhimurium; settings: read-out: IZ
[9] = tested on: Escherichia coli; experiment: Antimicrobial activity against Escherichia coli at 100 ug/disk after 10 hrs by disc-diffusion assay; type: functional; settings: read-out: IZ
[10] = tested on: Staphylococcus epidermidis; experiment: Antimicrobial activity against Staphylococcus epidermidis ATCC 12228 at 30 ug in 6 mm disk after 10 hrs by disc-diffusion assay; type: functional; settings: ATCC 12228, 10 h, read-out: IZ
[11] = tested on: Candida albicans; experiment: Antifungal activity against Candida albicans ATCC 12983 at 30 ug in 6 mm disk after 10 hrs by disc-diffusion assay; type: functional; settings: ATCC 12983, 10 h, read-out: IZ
[12] = tested on: Candida parapsilosis; experiment: Antifungal activity against Candida parapsilosis ATCC 12969 at 30 ug in 6 mm disk after 10 hrs by disc-diffusion assay; type: functional; settings: Lodderomyces parapsilosis, ATCC 12969, 10 h; read-out: IZ
[13] = tested on: Candida tropicalis; experiment: Antifungal activity against Candida tropicalis ATCC 12968 at 30 ug in 6 mm disk after 10 hrs by disc-diffusion assay; type: functional; settings: ATCC 12968, 10 h, read-out: IZ
[14] = tested on: Pichia kudriavzevii; experiment: Antifungal activity against Candida krusei ATCC 27803 at 30 ug in 6 mm disk after 10 hrs by disc-diffusion assay; type: functional; settings: ATCC 27803, 10 h, read-out: IZ
[15] = tested on: Staphylococcus aureus; experiment: Antimicrobial activity against Staphylococcus aureus ATCC 700787 at 15 ug in 6 mm disk after 10 hrs by disc-diffusion assay; type: functional, organism-based
[16] = tested on: Staphylococcus epidermidis; experiment: Antimicrobial activity against Staphylococcus epidermidis ATCC 12228 at 15 ug in 6 mm disk after 10 hrs by disc-diffusion assay; type: functional, organism-based
[17] = tested on: Burkholderia cepacia; experiment: Antimicrobial activity against Burkholderia cepacia ATCC 25608 at 15 ug in 6 mm disk after 10 hrs by disc-diffusion assay; type: functional, organism-based
[18] = tested on: Klebsiella pneumoniae; experiment: Antimicrobial activity against Klebsiella pneumoniae ATCC 33495 at 15 ug in 6 mm disk after 10 hrs by disc-diffusion assay; type: functional, organism-based
[19] = tested on: Acinetobacter baumannii; experiment: Antimicrobial activity against Acinetobacter baumannii ATCC 19606 at 15 ug in 6 mm disk after 10 hrs by disc-diffusion assay; type: functional, organism-based
[20] = tested on: Pseudomonas aeruginosa; experiment: Antimicrobial activity against Pseudomonas aeruginosa ATCC 10145 at 15 ug in 6 mm disk after 10 hrs by disc-diffusion assay; type: functional, organism-based
[21] = tested on: Escherichia coli; experiment: Antimicrobial activity against Escherichia coli ATCC 11775 at 15 ug in 6 mm disk after 10 hrs by disc-diffusion assay; type: functional, organism-based
[22] = tested on: Enterobacter cloacae; experiment: Antimicrobial activity against Enterobacter cloacae ATCC 13047 at 15 ug in 6 mm disk after 10 hrs by disc-diffusion assay; type: functional, organism-based

With `CC(=O)N1CCN(c2ccc(OCC3COC(Cn4ccnc4)(c4ccc(Cl)cc4Cl)O3)cc2)CC1` (stereo not drawn) [KETOCONAZOLE] the zone of inhibition at 15 µg/disc [1] was 15 mm, the zone of inhibition at 15 µg/disc [2] was 15 mm and the zone of inhibition at 15 µg/disc [3] was 15 mm. It also gave a zone of inhibition at 15 µg/disc [4] of 15 mm and a zone of inhibition at 15 µg/disc [5] of 15 mm.
`C/C=C(/C(=O)O)N1C(=O)C=C(C)C1=O` [PENCOLIDE] was tested, and the zone of inhibition at 100 µg/disc [6] was 13 mm, the zone of inhibition at 100 µg/disc [7] was 13 mm and the zone of inhibition at 100 µg/disc [8] was 13 mm. The zone of inhibition at 100 µg/disc [9] was 13 mm.
For `CC[C@H](C)/C=C(C)/C=C/C1=CC2=C(Cl)C(=O)[C@](C)(OC(C)=O)C(=O)C2=CN1` [SCLEROTIORAMINE], the zone of inhibition at 30 µg/disc [10] was 8 mm, the zone of inhibition at 30 µg/disc [11] was 8 mm and the zone of inhibition at 30 µg/disc [12] was 7 mm. It also gave a zone of inhibition at 30 µg/disc [13] of 8 mm and a zone of inhibition at 30 µg/disc [14] of 8 mm.
Molecule `CC[C@H](C)/C=C(C)/C=C/C1=CC2=C(Cl)C(=O)[C@](C)(OC(C)=O)C(=O)C2=CO1` [SCLEROTIORIN] has a zone of inhibition at 30 µg/disc [10] of 8 mm.
Molecule GENTAMICIN has an inhibition zone (IZ) [15] of 8 mm, an inhibition zone (IZ) [16] of 8 mm and an inhibition zone (IZ) [17] of 8 mm. For the same molecule, the inhibition zone (IZ) [18] was 8 mm, the inhibition zone (IZ) [19] was 8 mm and the inhibition zone (IZ) [20] was 8 mm. It also gave an inhibition zone (IZ) [21] of 8 mm and an inhibition zone (IZ) [22] of 8 mm.
